According to PubChem BioAssay (NCI):
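Cells were grown in 96-well plates and exposed to each compound for 48 hours at five concentrations; endpoints were interpolated linearly between bracketing concentrations, or set to the highest concentration if not reached. Definition used: TGI = concentration required for complete inhibition of growth.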

Columns and labels:
Test in all cases: NCI-60 cell line screen, 48 h
[1] = system: A498 renal
[2] = system: A549 NSCLC
[3] = system: ACHN renal
[4] = system: BT-549 breast
[5] = system: CAKI-1 renal
[6] = system: CCRF-CEM leukemia
[7] = system: COLO 205 colon
[8] = system: DU-145 prostate
[9] = system: EKVX NSCLC
[10] = system: HCT-116 colon
[11] = system: HCT-15 colon
[12] = system: HL-60(TB) leukemia
[13] = system: HOP-62 NSCLC
[14] = system: HOP-92 NSCLC
[15] = system: HS 578T breast
[16] = system: HT29 colon
[17] = system: IGROV1 ovarian
[18] = system: K-562 leukemia
[19] = system: KM12 colon
[20] = system: LOX IMVI melanoma
[21] = system: M14 melanoma
[22] = system: MALME-3M melanoma
[23] = system: MCF7 breast
[24] = system: MDA-MB-231 breast
[25] = system: MDA-MB-435
[26] = system: MDA-N
[27] = system: MOLT-4 leukemia
[28] = system: NCI-H226 lung
[29] = system: NCI-H23 lung
[30] = system: NCI-H460 lung
[31] = system: NCI-H522 lung
[32] = system: NCI/ADR-RES ovarian
[33] = system: OVCAR-3 ovarian
[34] = system: OVCAR-4 ovarian
[35] = system: OVCAR-5 ovarian
[36] = system: OVCAR-8 ovarian
[37] = system: PC-3 prostate
[38] = system: RPMI-8226 leukemia
[39] = system: RXF 393 renal
[40] = system: SF-268 CNS
[41] = system: SF-295 CNS
[42] = system: SF-539 CNS
[43] = system: SK-MEL-2 melanoma
[44] = system: SK-MEL-28 melanoma
[45] = system: SK-MEL-5 melanoma
[46] = system: SK-OV-3 ovarian
[47] = system: SN12C renal
[48] = system: SNB-19 CNS
[49] = system: SNB-75 CNS
[50] = system: SR leukemia
[51] = system: SW-620 colon
[52] = system: T-47D breast
[53] = system: TK-10 renal
[54] = system: U251 CNS
[55] = system: UACC-257 melanoma
[56] = system: UACC-62 melanoma
[57] = system: UO-31 renal
[58] = system: 786-0 renal
[59] = system: HCC-2998 colon

Work on `COc1cc(/C=N\O)cc(/C=N/O)c1O` yielded a TGI [1] greater than 100 µM, a TGI [2] greater than 100 µM and a TGI [3] of 81.9 µM. The TGI [4] was greater than 100 µM, the TGI [5] was greater than 100 µM and the TGI [6] was 25.1 µM. The TGI [7] was 49.2 µM, the TGI [8] was greater than 100 µM and the TGI [9] was greater than 100 µM. For the same molecule, the TGI [10] was greater than 100 µM, the TGI [11] was greater than 100 µM and the TGI [12] was greater than 100 µM. The TGI [13] was greater than 100 µM, the TGI [14] was 79.5 µM and the TGI [15] was 51.4 µM. The TGI [16] was greater than 100 µM, the TGI [17] was greater than 100 µM and the TGI [18] was greater than 100 µM. The TGI [19] was greater than 100 µM, the TGI [20] was greater than 100 µM and the TGI [21] was 54.7 µM. It also gave a TGI [22] of 97.6 µM, a TGI [23] greater than 100 µM and a TGI [24] greater than 100 µM. The TGI [25] was greater than 100 µM, the TGI [26] was greater than 100 µM and the TGI [27] was 77 µM. For the same molecule, the TGI [28] was 63.8 µM, the TGI [29] was greater than 100 µM and the TGI [30] was greater than 100 µM. The TGI [31] was greater than 100 µM, the TGI [32] was greater than 100 µM and the TGI [33] was greater than 100 µM. It also gave a TGI [34] greater than 100 µM, a TGI [35] greater than 100 µM and a TGI [36] greater than 100 µM. The TGI [37] was greater than 100 µM, the TGI [38] was 32.4 µM and the TGI [39] was 60.3 µM. The TGI [40] was greater than 100 µM, the TGI [41] was 76.5 µM and the TGI [42] was 66.3 µM. It also gave a TGI [43] of 62.7 µM, a TGI [44] greater than 100 µM and a TGI [45] greater than 100 µM. The TGI [46] was 90.9 µM, the TGI [47] was greater than 100 µM and the TGI [48] was greater than 100 µM. For the same molecule, the TGI [49] was greater than 100 µM, the TGI [50] was 90.2 µM and the TGI [51] was greater than 100 µM. It also gave a TGI [52] greater than 100 µM, a TGI [53] greater than 100 µM and a TGI [54] greater than 100 µM. It also gave a TGI [55] greater than 100 µM, a TGI [56] greater than 100 µM and a TGI [57] greater than 100 µM.

With `Cc1c2ccccc2cc2nc3ccccc3n12` the TGI [58] was greater than 10 µM, the TGI [2] was greater than 10 µM and the TGI [3] was greater than 10 µM. For the same molecule, the TGI [4] was greater than 10 µM, the TGI [5] was greater than 10 µM and the TGI [6] was greater than 10 µM. It also gave a TGI [7] greater than 10 µM, a TGI [8] greater than 10 µM and a TGI [9] greater than 10 µM. For the same molecule, the TGI [59] was greater than 10 µM, the TGI [10] was greater than 10 µM and the TGI [11] was greater than 10 µM. The TGI [12] was greater than 10 µM, the TGI [13] was greater than 10 µM and the TGI [14] was greater than 10 µM. The TGI [15] was greater than 10 µM, the TGI [16] was greater than 10 µM and the TGI [17] was greater than 10 µM. For the same molecule, the TGI [18] was greater than 10 µM, the TGI [19] was greater than 10 µM and the TGI [21] was greater than 10 µM. For the same molecule, the TGI [22] was greater than 10 µM, the TGI [23] was greater than 10 µM and the TGI [24] was greater than 10 µM. For the same molecule, the TGI [25] was greater than 10 µM, the TGI [26] was greater than 10 µM and the TGI [27] was greater than 10 µM. The TGI [28] was greater than 10 µM, the TGI [29] was greater than 10 µM and the TGI [30] was greater than 10 µM. The TGI [31] was greater than 10 µM, the TGI [32] was greater than 10 µM and the TGI [33] was greater than 10 µM. The TGI [34] was greater than 10 µM, the TGI [35] was greater than 10 µM and the TGI [36] was greater than 10 µM. For the same molecule, the TGI [37] was greater than 10 µM, the TGI [38] was greater than 10 µM and the TGI [39] was greater than 10 µM. It also gave a TGI [40] greater than 10 µM, a TGI [41] greater than 10 µM and a TGI [42] greater than 10 µM. For the same molecule, the TGI [43] was greater than 10 µM, the TGI [44] was greater than 10 µM and the TGI [45] was greater than 10 µM. It also gave a TGI [46] greater than 10 µM, a TGI [47] greater than 10 µM and a TGI [48] greater than 10 µM. The TGI [49] was greater than 10 µM, the TGI [50] was greater than 10 µM and the TGI [51] was greater than 10 µM. It also gave a TGI [52] greater than 10 µM, a TGI [53] greater than 10 µM and a TGI [54] greater than 10 µM. For the same molecule, the TGI [55] was greater than 10 µM and the TGI [56] was greater than 10 µM.
